This note sets out measurements from patent publication US10039839B2, “Compounds that participate in cooperative binding and uses thereof” (Warp Drive Bio, Inc., priority 2015, dated 2018).

Test [1] concerns the target T1, CEP250 (Homo sapiens, UniProt Q9BV73).
T1 construct: CEP25011.4 (residues 2134-2231) (in-house); made in house
As to the kind of experiment: SPR binding of CEP250 (analyte) to immobilized FKBP12-F2 binary complex. The procedure:
Experiments are performed at 25° C.
On the technique in general: SPR reads the build-up and loss of mass on a sensor chip optically.

Test [2] deals with T1, CEP250. As to the kind of experiment: ITC binding of FKBP12-compound binary complexes to CEP250. Particulars: FKBP12 10 μM + ligand 20 μM, 298 K. The procedure:
This protocol utilizes Isothermal Titration calorimetry (ITC) to directly measure the heat change associated with binding of FKBP12-F2 and FKBP12-F11 binary complexes to CEP250. Measurement of the heat change allows accurate determination of association constants (Ka), reaction stoichiometry (N), and the change in binding enthalpy (ΔH).
FKBP12 stock solution is diluted to 10 μM in assay buffer (1% DMSO final). Compound is added to FKBP12 to 20 μM (1% DMSO final), and binary complex is filled into the reaction cell of the ITC device after 5-10 min pre-incubation time. […] A control experiment in the absence of compound is also run to determine the heat associated with operational artifacts and the dilution of titrant as it is injected from the syringe into the reaction cell.
Data were fitted with the Origin ITC200 software according to the following procedure: • 1) Read raw data • 2) In “mRawITC”: adjust integration peaks and baseline, integrate all peaks • 3) In “Delta H”—data control: remove bad data (injection #1 and other artifacts), subtract straight line (background subtraction) • 4) In “Delta H”—model fitting: select one set of sites model, perform fitting with Levenberg-Marquardt algorithm until Chi Square is not reduced further, finish with “done” (parameters N, Ka and ΔH are calculated based on fitting)

For the next test, the system named is HeLa-FKBP12 cells. In words: Biosensor cell permeability assay, FKBP binding compounds. To be noted: 72 hrs. The class given is cell-based. The procedure:
This protocol utilizes a modified FKBP or cyclophilin destabilizing mutant to determine the bioactivity of FKBP binding compounds or cyclophilin binding compounds in whole cell assay.
Plate HeLa-FKBP12 cells (for FKBP binding compounds) or HeLa-Cyclophilin A cells (for cyclophilin binding compounds) and seed overnight at 5 k/well (approximately ˜18 hrs.). Using a multi-channel pipet, take out the old media and add ˜125 ul of new media with compounds. Compounds are diluted using DMEM without Phenol Red, 10% FBS, 1× Sodium Pyruvate, 1× Glutamax. Add 125 ul of media with compound per well. Cells are treated with compounds at concentration: 30, 10, 3.33, 1.11, 0.37, 0.12, 0.04 and 0.013 uM. Time points are taken at 72 hrs and plate read using plate reader with excitation/emission: 575/620.
Cell binding/permeability is calculated in fold-change (Total RFU of treated samples/total RFU of DMSO treated samples or total RFU above background (Total RFU minus total RFU of DMSO treated samples).

Test [3] has as its target T2, FKBP12 (Homo sapiens, UniProt P62942). In words: AlphaLISA: inhibition of binding of biotinylated FK506 to FLAG tagged FKBP12. More on the design: made in house. The procedure: This protocol utilizes Perkin Elmers AlphaLISA technology platform to detect FKBP binders by measuring the inhibition of binding of biotinylated FK506 to FLAG tagged FKBP12.
Add 20 uL of 12.5 nM FKBP-FLAG working stock to each well of the 96-well plate. Add 1 uL of test compound (100% DMSO) to each well of the plate using the Janus MTD head and P20 tips (except control wells). Add 1 uL of DMSO to negative control wells and 1 uL of 50 uM FK506 solution to positive control wells. In the dark, add 20 uL of combined Donor/Acceptor beads to each well. Incubate in the dark for 30 minutes at room temperature. In the dark, add 10 uL of 5 nM biotinylated FK506 working stock to each well. Incubate in the dark for 60 minutes at room temperature. Protect plate from light until reading on Biotek Synergy2 Plate Reader; Alphalisa 96-well protocol (680 excitation/615 emission).
A general note: In Alpha technology, singlet oxygen from a donor bead excites a nearby acceptor bead.

Test [4] addresses T2, FKBP12.
Procedure: This protocol utilizes Surface Plasmon Resonance (SPR) as a method to determine kinetics (KD, Ka, Kd) for the binding of compound (analyte) to immobilized FKBP12 (ligand).
Experiments are performed at 25° C. Stock solution of 12×HIS tagged FKBP12 is diluted to 100 nM in assay buffer (1% DMSO final). Approximately 500-600 RU of FKBP12 is immobilized on one of two flow cells of an activated NTA chip. The second flow cell is not activated as a reference for non-specific interaction of the analyte to the sensor chip. Various concentrations of compound (1 nM-1 μM range), serially diluted into the same assay buffer (1% DMSO final), are injected onto the FKBP12 surface and reference surface at a flow rate of 10 μl/min. The surface is regenerated between analyte injections with 350 mM EDTA.
The BiaEvaluation software program is used for data fitting. All data is reference subtracted against both the reference flow cell and a buffer injection. For kinetic analyses, data is locally fit to a 1:1 interaction model.
Experiments are performed at 25° C. Stock solution of 12×HIS tagged FKBP12 is diluted to 100 nM in assay buffer (1% DMSO final). Approximately 500-600 RU of FKBP12 is immobilized on one of two flow cells of an activated NTA chip. The second flow cell is not activated as a reference for non-specific interaction of the analyte to the sensor chip.
Test [5] addresses T3, CEP250 (Homo sapiens, UniProt P62942+Q9BV73).
T3 construct: CEP25011.4 (residues 2134-2231) (in-house); made in house
As to the kind of experiment: Crystal structure analysis of FKBP12-compound-CEP250 ternary complexes. To be noted: FKBP12-compound-CEP25011.4 crystal structure. The source says:
As used herein, the term “buried surface area” refers to the surface area of a protein or a complex that is not exposed to solvent. Buried surface area may be determined by methods known in the art including by calculating inaccessibility to solvent. Inaccessibility to solvent may be calculated computationally with a rolling probe of 1.4 A, using a program such as PDBePISA release version 1.48 (http://www.ebi.ac.uk/pdbe/pisa/).
This protocol describes the crystallization and structure determination method for structures of FKBP12-Compound 2-CEP250 and FKBP12-F11-CEP250 ternary complexes.
A 3:1 molar excess of FKBP12-F2 or FKBP12-F11 binary complex is added to CEP25011.4 and incubated at 4° C. overnight to complete ternary complex formation. Pure ternary complex is isolated by gel filtration purification on a Superdex 200 column in 12.5 mM HEPES pH 7.4, 75 mM NaCl. Purified complex (at 10-20 mg/ml) is subjected to crystallization at 22° C. using sitting drop vapor diffusion. FKBP12-F2-CEP250 crystals grow in a well solution containing 0.2 M sodium malonate, 0.1 M HEPES 7.0, 21% PEG 3350. FKBP12-F11-CEP250 crystals grow in a well solution containing 0.1 M Tris pH 8.5, 0.2 M trimethylamine N-oxide, 22-24% PEG2000 MME. For data collection crystals are transferred to a solution containing mother liquor supplemented with 20-25% glycerol, and then frozen in liquid nitrogen. Diffraction datasets are collected at the Advanced Photon Source (APS) and processed with the HKL program. Molecular replacement solutions are obtained using the program PHASER in the CCP4 suite, using the published structure of FKBP12 (PDB-ID 1FKD) as a search model. Subsequent model building and refinement are performed according to standard protocols with the software packages CCP4 and COOT.

Setting [6] is: FKBP12/F2 complex to CEP25011.4 (residues 2134-2231).
[7] abbreviates: FKBP12/F2 complex to CEP25029.2 (residues 1982-2231).

T3 sequence (Q9BV73 2134-2231): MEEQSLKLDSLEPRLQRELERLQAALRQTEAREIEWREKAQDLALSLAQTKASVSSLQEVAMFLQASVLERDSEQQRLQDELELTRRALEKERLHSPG
T3 sequence (P62942 whole entry, the tested form may be a part): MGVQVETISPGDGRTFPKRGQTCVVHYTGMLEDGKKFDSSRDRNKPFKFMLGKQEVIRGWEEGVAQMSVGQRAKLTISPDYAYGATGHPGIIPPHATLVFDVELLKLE
T2 sequence (P62942 whole entry, species assumed): as the sequence (P62942 whole entry, the tested form may be a part) above

What is called Kd is the equilibrium constant for the complex coming apart. As for `CC[C@H](Cc1ccccc1)[C@@H]1/C=C/C/C=C/C[C@@H](C)[C@H](O)[C@@H](C)[C@@H]2CC[C@@H](C)C(=O)C(O)(O2)C(=O)N2CCCC[C@H]2C(=O)O1` [F2, (2S)-1-((4R,7S)-7-((2R,3S,4R,6E,9E,11R,12R)-12-benzyl-3,11-dihydroxy-4-methyltetradeca-6,9-dien-2-yl)-2-hydroxy-4-methyl-3-oxooxepane-2-carbonyl)piperidine-2-carboxylic acid C-11 lactone], on CEP250 [1] (setting [6]), the “dissociation rate constant (koff)” value is 3.09×10^−3 1/S and the dissociation constant (Kd) was 0.0054 µM. At CEP250 [1] (setting [7]), the “dissociation rate constant (koff)” value is listed as 9.25×10^−5 1/S and binding was characterised by a dissociation constant (Kd) of 0.00029 µM. Besides, at CEP250 [2] (CEP25011.4 68 μM), the ΔG is given as −40.75 kJ*mol−mol−1, the ΔH is −49.37 kJ*mol−mol−1 and the “−T*ΔS” value is given as 8.62 kJ*mol−mol−1. For the same molecule, at CEP250 [2] (CEP25029.4 118 μM), the ΔG is −38.41 kJ*mol−mol−1, the ΔH is −52.21 kJ*mol−mol−1 and the “−T*ΔS” value came out at 13.80 kJ*mol−mol−1.

For orientation: IC50 means the midpoint of a concentration-inhibition curve. In the case of `CC1=C\CC(O)CC(/C(C)=C/C(C)=C/C2C=CC(O)C(O)C2)OC(=O)C2CCCCN2C(=O)CC2(O)OC(C(C)C/C=C/CC(O)\C=C\1)C(C)CC2C` (centres unmarked) [F6], the 50% inhibitory concentration (IC50) was less than 1 µM in the test with HeLa-FKBP12 cells and 0.06 µM on FKBP12 [3]. For the same molecule, binding on FKBP12 [4] was put at a Kd of 0.141 µM.

Consider `COC1C=C(/C=C/C2OC(=O)C3CCCCN3C(=O)C3(O)OC(CCC(C)C3=O)C(C)C3CC4OC(CC(O)C2C)(O3)C(C)CC4C)CCC1O` (centres unmarked) [F7], for which the concentration for half-maximal inhibition (IC50) on FKBP12 [3] is 0.026 µM. Besides, the Kd on FKBP12 [4] came out at 0.12 µM.

For the molecule `COC1C=C(/C=C/C2OC(=O)C3CCCCN3C(=O)C(=O)C3(O)OC(CCC3C)C(C)C3CC4OC(CC(O)C2C)(O3)C(C)CC4C)CCC1O` (centres unmarked) [F8], at FKBP12 [3], the IC50 came out at 0.0106 µM. In addition, the Kd at FKBP12 [4] was 0.066 µM.

Consider `COC1C(O)CCC(CC(C)C2CCC/C=C/C/C(C)=C/CC3OC(O)(C(=O)C(=O)N4CCCCC4C(=O)O2)C(C)CC3C)C1O` (centres unmarked) [F9], for which the IC50 is less than 1 µM in the test on HeLa-FKBP12 cells and 0.0003 µM on FKBP12 [3]. On FKBP12 [4], this molecule gave a Kd of 0.00023 µM.

In the case of `CCC1/C=C(\C)C(O)CCC(C)/C=C/C(O)C(C)C2CCC(C)C(O)(O2)C(=O)C(=O)N2CCCCC2C(=O)OC2C=CC(=CC2O)/C=C(\C)C1` (centres unmarked) [F10], the concentration for half-maximal inhibition (IC50) in the test with HeLa-FKBP12 cells is greater than 1 µM; on FKBP12 [3] it was 0.0211 µM. Moreover, the Kd at FKBP12 [4] stood at 0.0172 µM.

In the case of `CC[C@H](Cc1ccccc1)[C@@H]1CCCCCC[C@@H](C)[C@H](O)[C@@H](C)[C@@H]2CC[C@@H](C)C(=O)C(O)(O2)C(=O)N2CCCCC2C(=O)O1` (stereo partly drawn) [F11, (2S)-1-((4R,7S)-7-((2R,3S,4R,11S,12R)-12-benzyl-3,11-dihydroxy-4-methyltetradecan-2-yl)-2-hydroxy-4-methyl-3-oxooxepane-2-carbonyl)piperidine-2-carboxylic acid C-11 lactone], on CEP250 [2] (CEP25011.4 68 μM), the ΔG was −40.36 kJ*mol−mol−1, the ΔH was −47.78 kJ*mol−mol−1 and the “−T*ΔS” value is 7.41 kJ*mol−mol−1. For the same molecule, at CEP250 [2] (CEP25029.4 118 μM), the ΔG is −36.74 kJ*mol−mol−1, the ΔH is −58.48 kJ*mol−mol−1 and the “−T*ΔS” value came to 21.73 kJ*mol−mol−1. On CEP250 [5], the “buried surface area of CEP250 contributed by FKBP12” value is 590 Å^2, the “total buried surface area of CEP250” value worked out at 831 Å^2 and the “total buried surface area of the ternary complex” value is listed as 1648 Å^2. The kon at FKBP12 [4] (read-out: Ka) came out at 567000 M⁻¹ s⁻¹.

Take `C/C1=C\C2=CC(O)C(C=C2)OC(=O)C2CCCCN2C(=O)C(=O)C2(O)OC(CCC2C)C(C)C(O)/C=C/C(C)CCC(O)/C(C)=C/C(C)C1` (centres unmarked) [F12]: the 50% inhibitory concentration (IC50) in the test on HeLa-FKBP12 cells was greater than 1 µM; at FKBP12 [3], 0.0363 µM. On FKBP12 [4], this molecule gave a Kd of 0.0212 µM.

With `COC1CC(/C=C(C)/C=C(\C)C2CC(O)C/C=C(C)/C=C/C(O)C/C=C/CC(C)C3OC(O)(CC(=O)N4CCCCC4C(=O)O2)C(C)CC3C)C=CC1O` (centres unmarked) [F13], the concentration for half-maximal inhibition (IC50) in the test on HeLa-FKBP12 cells was greater than 1 µM; at FKBP12 [3], 0.0336 µM. Binding at FKBP12 [4] was put at a Kd of 0.106 µM.

Take `CCC(/C=C(\C)C(O)CCC(C)/C=C/C(O)C(C)C1CCC(C)C(O)(C(=O)C(=O)N2CCCCC2C(=O)O)O1)C/C(C)=C/C1=CC(O)C(O)C=C1` (centres unmarked) [F14]: the IC50 is greater than 1 µM in the test on HeLa-FKBP12 cells and 1.8 µM on FKBP12 [3].

With `COC1CC(/C=C(C)/C=C(\C)C2CC(O)C/C=C(C)/C=C/C(=O)C/C=C/CC(C)C3OC(O)(CC(=O)N4CCCCC4C(=O)O2)C(C)CC3C)C=CC1O` (centres unmarked) [F16], the IC50 in the test on HeLa-FKBP12 cells was greater than 1 µM; on FKBP12 [3], 0.0675 µM. The Kd on FKBP12 [4] turned out to be 0.29 µM.

Turning to `C/C1=C\CC2OC(O)(C(=O)C(=O)N3CCCCC3C(=O)OC(C(C)CC3CCC(O)C(O)C3)CCC/C=C/C1)C(C)CC2C` (centres unmarked) [F17], the IC50 in the test with HeLa-FKBP12 cells is less than 1 µM; at FKBP12 [3] it was 0.00026 µM. On FKBP12 [4], the affinity, expressed as Kd, was 0.0002 µM.

Take `CCC(/C=C(\C)C(O)CCC(C)/C=C/C(O)C(C)C1CCC(C)C(O)(C(=O)C(=O)N2CCCCC2C(=O)O)O1)C/C(C)=C/c1ccc(O)c(O)c1` (centres unmarked) [F18]: the IC50 with HeLa-FKBP12 cells was less than 1 µM; at FKBP12 [3], 0.229 µM.

Consider `COC1CC(CC(C)C2CCC/C=C/C/C(C)=C/CC3OC(O)(C(=O)C(=O)N4CCCCC4C(=O)O2)C(C)CC3C)CCC1O` (centres unmarked) [F19], for which the half-inhibitory concentration (IC50) in the test on HeLa-FKBP12 cells was less than 1 µM; on FKBP12 [3], 0.00022 µM.

Take `CC(=C\C1C=CC(O)C(O)C1)/C=C(\C)C1CC(O)CC1C(C)(O)/C=C/C(O)C/C=C/CC(C)C1OC(O)(CC(=O)N2CCCCC2C(=O)O)C(C)CC1C` (centres unmarked) [F23]: the concentration for half-maximal inhibition (IC50) is greater than 1 µM with HeLa-FKBP12 cells and 4.69 µM at FKBP12 [3].
